Assay results reported in patent publication US20080188481A1 (priority 2002, published 2008).

Each molecule was assayed on HIV-1 single-round infectious reporter virus (assay: Single-round infectious HIV-1 luciferase reporter virus infection of HeLa CD4 cells (antiviral EC50)). Conditions: Human immunodeficiency virus 1, HeLa, 72 h, read-out: EC50 Group from Table 1.
Type: cell-based
Procedure, shortened: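 HeLa CD4 cells infected with env-pseudotyped, luciferase-reporter single-round HIV-1 (MOI ~0.01) in presence of compound (final ≤10 μM), harvested 72 h at 37 °C. Luciferase luminescence expressed as percent inhibition versus no-compound control; EC50 from 10-concentration four-parameter logistic fit.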

Q: `COc1ncc(OC)c2c(C(=O)C(=O)N3CCC(=C(C#N)c4cncs4)CC3)c[nH]c12` [Example 124, 1-[4-(1-Cyano-1-thiazol-5-yl-methylene)-piperidin-1-yl]-2-(4,7-dimethoxy-6-azaindol-3-yl)-ethane-1,2-dione] was tested. Which EC50 did it give?
A: < 1 µM

Q: How did the EC50 turn out when `COc1cnc(-c2cnccn2)c2[nH]cc(C(=O)C(=O)N3CCC(=C(c4ccccc4)c4cccnc4)CC3)c12` [Example 71, 1-[4-(1-Phenyl-1-(pyridin-3-yl)-methylene)-piperidin-1-yl]-2-(4-methoxy-7-pyrazinyl-6-azaindol-3-yl)-ethane-1,2-dione] was run?
A: < 1 µM

Q: For `COc1cnc(-c2cnccn2)c2[nH]cc(C(=O)C(=O)N3CCC(=C(c4ccccc4)c4cnco4)CC3)c12` [Example 92], which EC50 is on record?
A: < 1 µM

Q: How did the EC50 turn out when `COc1cnc(-n2ccnn2)c2[nH]cc(C(=O)C(=O)N3CCC(=C(c4ccccc4)c4cccc(CO)c4)CC3)c12` [Example 78, 1-[4-(1-Phenyl-1-(3-hydroxymethylphenyl)-methylene)-piperidin-1-yl]-2-[4-methoxy-7-(1,2,3-triazol-1-yl)-6-azaindol-3-yl]-ethane-1,2-dione] was run?
A: < 1 µM

Q: For `O=C(C(=O)N1CCC(=Cc2ccccc2)CC1)c1c[nH]c2c(-c3ncon3)ccc(F)c12` [Example 6], which EC50 is on record?
A: < 1 µM

Q: For `COc1cnc(-n2cnc(C)n2)c2[nH]cc(C(=O)C(=O)N3CCC(=C(c4ccccc4)c4cnn(Cc5ccccc5)c4)CC3)c12` [Example 143, 1-[4-(1-Phenyl-1-(1-benzylpyrazol-4-yl)-methylene)-piperidin-1-yl]-2-(4-methoxy-7-(3-methyl-1,2,4-triazol-1-yl)-6-azaindol-3-yl)-ethane-1,2-dione], which EC50 is on record?
A: < 1 µM

Q: Which EC50 does the source give for `N#CC(=C1CCN(C(=O)C(=O)c2c[nH]c3c(-n4ccc(N)n4)ncc(F)c23)CC1)c1ccccc1` [Example 111, (1-{2-[7-(3-Amino-pyrazol-1-yl)-4-fluoro-1H-pyrrolo[2,3-c]pyridin-3-yl]-2-oxo-acetyl}-piperidin-4-ylidene)-phenyl-acetonitrile] here?
A: < 1 µM

Q: How did the EC50 turn out when `COc1cnc(-n2ccc(C)n2)c2[nH]cc(C(=O)C(=O)N3CCC(=C(c4ccccc4)c4csc(C)n4)CC3)c12` [Example 100] was run?
A: < 1 µM

Q: How did the EC50 turn out when `COc1ccccc1C(=C1CCN(C(=O)C(=O)c2c[nH]c3c(OC)ncc(OC)c23)CC1)c1ccccc1` [Example 65] was run?
A: < 1 µM

Q: How did the EC50 turn out when `COc1cnc(-n2cc(C)nn2)c2[nH]cc(C(=O)C(=O)N3CCC(=C(c4ccccc4)c4cc(C)n[nH]4)CC3)c12` [Example 137, 1-[4-(1-Phenyl-1-(3-methylpyrazol-5-yl)-methylene)-piperidin-1-yl]-2-(4-methoxy-7-(4-methyl-1,2,3-triazol-1-yl)-6-azaindol-3-yl)-ethane-1,2-dione] was run?
A: < 1 µM

Q: How did the EC50 turn out when `COc1cnc(-n2ccc(C)n2)c2[nH]cc(C(=O)C(=O)N3CCC(=C(c4ccccc4)c4nnc(C)o4)CC3)c12` [Example 99] was run?
A: < 1 µM

Q: How did the EC50 turn out when `COc1cccc(C(=C2CCN(C(=O)C(=O)c3c[nH]c4c(OC)ncc(OC)c34)CC2)c2ccccc2)c1` [Example 58] was run?
A: < 1 µM

Q: Which EC50 does the source give for `COc1cnc(-n2cnc(C)n2)c2[nH]cc(C(=O)C(=O)N3CCC(=C(c4ccccc4)c4nnc(C5CCC5)o4)CC3)c12` [Example 133, 1-[4-(1-Phenyl-1-(5-cyclobutyl-1,3,4-oxadiazol-2-yl)-methylene)-piperidin-1-yl]-2-[4-methoxy-7-(3-methyl-1,2,4-triazol-1-yl)-6-azaindol-3-yl]-ethane-1,2-dione] here?
A: < 1 µM

Q: How did the EC50 turn out when `COc1cnc(-n2ccc(C)n2)c2[nH]cc(C(=O)C(=O)N3CCC(=C(c4ccccc4)c4cnccn4)CC3)c12` [Example 96] was run?
A: < 1 µM

Q: `COc1cnc(-n2ccnn2)c2[nH]cc(C(=O)C(=O)N3CCC(=C(c4ccccc4)c4nnco4)CC3)c12` [Example 132, 1-[4-(1-Phenyl-1-(1,3,4-oxadiazol-2-yl)-methylene)-piperidin-1-yl]-2-[4-methoxy-7-(1,2,3-triazol-1-yl)-6-azaindol-3-yl]-ethane-1,2-dione] was tested. Which EC50 did it give?
A: < 1 µM

Q: How did the EC50 turn out when `N#CC(=C1CCN(C(=O)C(=O)c2c[nH]c3c(-n4ccnn4)ncc(F)c23)CC1)c1ccccc1` [Example 129a, {1-[2-(4-Fluoro-7-[1,2,3]triazol-1-yl-1H-pyrrolo[2,3-c]pyridin-3-yl)-2-oxo-acetyl]-piperidin-4-ylidene}-phenyl-acetonitrile] was run?
A: < 1 µM

Q: With `COc1cnc(-n2cncn2)c2[nH]cc(C(=O)C(=O)N3CCC(=C(Br)c4ccccc4)CC3)c12` [Example 88] as the molecule, how does the EC50 read?
A: < 1 µM

Q: For `COc1cnc(-c2cnccn2)c2[nH]cc(C(=O)C(=O)N3CCC(=C(Br)c4ccccc4)CC3)c12` [Example 89], which EC50 is on record?
A: < 1 µM

Q: How did the EC50 turn out when `COc1cnc(-n2cnc(C)n2)c2[nH]cc(C(=O)C(=O)N3CCC(=C(c4ccccc4)c4nnc(C(C)C)o4)CC3)c12` [Example 81, 1-[4-(1-Phenyl-1-(5-isopropyl-1,3,4-oxadiazol-2-yl)-methylene)-piperidin-1-yl]-2-[4-methoxy-7-(3-methyl-1,2,4-triazol-1-yl)-6-azaindol-3-yl]-ethane-1,2-dione] was run?
A: < 1 µM
